In patent publication US4988730A, “Diphenkylpropylamines for the therapy of heart disease” (Chinoin Gyogyszer es Vegyeszeti Termekek Gyar RT, priority 1986, dated 1991):
Where two headings read alike, the source gives them in different places.

Assays:
[1] = "two-step" coronary occlusion of Harris, extrasystolic activity in conscious dogs; format: in vivo; details: for extrasystolic activity following by 24 hours the two-step coronary occlusion: conscious dogs, KHL-8430 2 mg/kg intravenous
[2] = vasopressin-induced angina, comparison of calcium antagonists (table 2); format: in vivo; details: for BP/Antianginal ED50 / ratio (row drawing 12; DP/dt max/antianginal by arithmetic): ratio, table 2
[3] = antiarrhythmic ("antifibrillatory") action, fibrillation threshold; format: in vivo; details: table 2
[4] = vasopressin angina of rats (acute coronary failure induced by vasopressin); format: in vivo; details: for ED50: Rattus norvegicus
Excerpt: Thus, such derivatives forming a more preferred group of the compounds of the formula (I), wherein R^1 is as defined above, R^2 means a methyl group, R^3 is halogen and R^4, R^5 and R^6 stand for hydrogen, show significant antianginal effects. In these derivatives, the halogen may be fluorine, chlorine or bromine. […] Thus, the above compound of the invention is about 42 times as effective as fendiline under the same conditions.
(§1) In the case of the vasopressin angina of rats [Papp and Szekeres: Arch. int. Pharmacodyn. 160, 147 (1966)], the antianginal activity measured at the 2nd minute following the intravenous administration or at the 60th minute after oral administration, respectively, as well as the intravenous and oral acute toxicity values, the therapeutic indices and the quotient of the therapeutic ratio of KHL-8430 to that of fendiline as measured in rats are summarized in Table 1.

[5] = system: auricular and ventricular muscle of the isolated cat heart; test: antiarrhythmic action in auricular and ventricular muscle of the isolated cat heart
[6] = anti-ischaemic protective action after an oral dose; format: in vivo
[7] = ventricular extrasystoles developing under the effect of a coronary occlusion; format: in vivo; details: as opposed to fendiline
[8] = haemodynamic study on dogs during coronary occlusion; format: in vivo; details: in comparison with fendiline, verapamil or nifedipine
[9] = acute toxicity in rats (LD50, therapeutic indices); format: in vivo; details: for LD50 / selectivity ratio: rat, in vivo; for LD50: acute toxicity; for selectivity ratio: LD50 and ED50 in vasopressin angina
Excerpt: as §1

[10] = haemodynamic actions (blood pressure, heart rate, left ventricle contractility); format: in vivo; details: i.v.; KHL-8430, verapamil and fendiline
[11] = myocardial ischaemia induced by coronary occlusion in dogs; format: in vivo; details: versus fendiline
Excerpt: The myocardial ischaemia induced by coronary occlusion in dogs [Szekeres e al.: J. Pharm.

[12] = iv, 2 min, i.v. at 2 minutes before inducing the angina by i.v. 2 NE/kg of vasopressin, read-out: ED50, acute coronary failure induced by vasopressin
[13] = 1 h, vasopressin angina, 60th minute after oral administration, read-out: ED50, antianginal activity, oral
[14] = iv, 2 min, vasopressin angina, 2nd minute following i.v. administration, read-out: ED50, antianginal activity, intravenous
[15] = iv, rats, i.v., read-out: LD50, intravenous
[16] = iv, rats, i.v., read-out: therapeutic index, intravenous (head is drawing 4)
[17] = rats, oral, read-out: LD50, oral
[18] = rats, oral, read-out: therapeutic index, oral (head is drawing 5)

| Structure (SMILES) | extrasystolic activity following by 24 hours the two-step coronary occlusion [1] | BP/Antianginal ED50 [2] | ratio (row drawing 12; DP/dt max/antianginal by arithmetic) [2] | ratio (row drawing 11; BP/FFT by arithmetic) [3] | ratio (row drawing 13; DP/dt max/FFT by arithmetic) [3] | ED50 [4, 12] | ED50 [4, 13] | ED50 [4, 14] | LD50 [9, 15] | selectivity ratio [9, 16] | LD50 [9, 17] | selectivity ratio [9, 18] | also measured |
| --- | --- | --- | --- | --- | --- | --- | --- | --- | --- | --- | --- | --- | --- |
| COc1ccc(CCN(C)CCCC(C#N)(c2ccc(OC)c(OC)c2)C(C)C)cc1OC (centres unmarked) [verapamil] | no significant effect | 2.0 | 0.7 | 0.13 | 0.04 | – | – | – | – | – | – | – | ED50 ([2]; iv, read-out: ED50, Vasopressin-induced angina): 0.1 mg/kg |
| CC(NCCC(c1ccccc1)c1ccccc1)c1ccc(Cl)cc1.Cl (centres unmarked) [2-(4-chlorophenyl)-6,6-diphenyl-3-azahexane hydrochloride] | – | – | – | – | – | 0.054 mg/kg | – | – | – | – | – | – | times as effective as fendiline ([4]; vasopressin angina, i.v., same conditions): about 42 times |
| COc1ccc(C(C)NCCC(c2ccccc2)c2ccccc2)cc1OC.Cl (centres unmarked) [KHL-8430, 2-(3,4-Dimethoxyphenyl)-6,6-diphenyl-3-azahexane hydrochloride] | significantly lowered | 3.75 | 10.00 | 1.25 | 3.33 | – | 8.4 mg/kg | 0.34 mg/kg | 16 mg/kg | 47.1 | 1400 mg/kg | 167 | antiarrhythmic action, auricular and ventricular muscle of the isolated cat heart ([5]; compared with mexiletine): high antiarrhythmic action, which equals the effect of mexiletine; antiarrhythmic action relative to fendiline, verapamil and other calcium antagonists ([5]; isolated cat heart): by far surpassing that of fendiline, verapamil and other calcium antagonists; strength and duration of the effect on the angina induced by vasopressin ([4]; versus fendiline): highly exceed that of fendiline; anti-ischaemic protective action after an oral dose [6]: very smooth; rhythm disturbances of the heart ([1]; dog, in vivo): in a great part of the cases, the rhythm disturbances of the heart could be suspended; frequency of the extrasystoles, oral administration ([1]; oral administration): diminished in a dose-dependent manner and very significantly; restraint of ventricular extrasystoles under coronary occlusion [7]: surprisingly capable to restrain the ventricular extrasystoles; arterial blood pressure during coronary occlusion [8]: only a little lowered; heart rate during coronary occlusion [8]: not decreased; prolongation of the activation time in the ischaemic area [8]: significantly restrained; Quotient of the therapeutic ratios, intravenous ([9]; rats, i.v., therapeutic ratio of KHL-8430 to that of fendiline): 8.89; Quotient of the therapeutic ratios, oral ([9]; rats, oral, therapeutic ratio of KHL-8430 to that of fendiline): 4.17; toxicity on intravenous and oral administrations ([9]; versus fendiline): less toxic than the reference compound; haemodynamical therapeutic index [10]: by far the best among the three calcium antagonists studied; decrease of myocardial ischaemia induced by coronary occlusion ([11]; intravenous or oral): decreased more strongly and with a much longer duration; strength and duration of the effect on the ischaemic state induced by coronary occlusion [11]: highly exceed that of fendiline |
| CC(NCCC(c1ccccc1)c1ccccc1)c1ccccc1 (stereo not drawn) [Fendiline, N-(3,3-diphenylpropyl)-α-methylbenzylamine, reference compound] | no significant effect | 0.62 | 0.41 | 0.26 | 0.175 | 2.3 mg/kg | 20 mg/kg | 2.3 mg/kg | 12.2 mg/kg | 5.3 | 800 mg/kg | 40 | – |
